Test results: patent publication US20240207302A1, “ANTIVIRAL COMPOUNDS, METHODS FOR THE MANUFACTURING OF COMPOUNDS, ANTIVIRAL PHARMACEUTICAL COMPOSITION, USE OF THE COMPOUNDS AND METHOD FOR THE ORAL TREATMENT OF CORONAVIRUS INFECTION AND RELATED DISEASES THEREOF” (priority 2021, published 2024)
Where two headings read alike, the source gives them in different places.

Tests used:
SARS-COV-2 [1] = test: Combination with SARS-COV-2 nsp14 (exonuclease) inhibitors in Calu-3 cells, infectious virus titers; format: cell-based; conditions: for effect of co-treatment with raltegravir or dolutegravir (iEXO) on inhibition of SARS-COV-2 / effect on SARS-COV-2 replication: calu-3; for effect of co-treatment with raltegravir or dolutegravir (iEXO) on inhibition of SARS-COV-2: drug 10 μM, raltegravir or dolutegravir 5 μM; for effect on SARS-COV-2 replication: 5 μM
[2] = Cytotoxicity assay (XTT) in Huh-7 cells; format: cell-based; conditions: human
Procedure: In parallel, cytotoxicity assays were performed. Monolayers of 1.5×10^4 cells in 96-well plates were treated for 3 days with various concentrations (semi-log dilutions from 1,000 to 10 μM) of the antiviral drugs. Then, 5 mg/mL 2,3-bis-(2-methoxy-4-nitro-5-sulfophenyl)-2H-tetrazolium-5-carboxanilide (XTT) in DMEM was added to the cells in the presence of 0.01% of N-methyl dibenzopyrazine methyl sulfate (PMS).

SARS-COV-2 [3] = test: SARS-COV-2 viral RNA synthesis in Vero cells (real time RT-PCR); format: cell-based
SARS-COV-2 [4] = test: SARS-COV-2 viral RNA synthesis in HuH-7 cells (real time RT-PCR); format: cell-based
SARS-COV-2 [5] = conditions: for SI: CC50/EC50
[6] = Cytotoxicity assay (XTT) in Calu-3 cells; format: cell-based, human; conditions: human
Procedure: (§1) In parallel, cytotoxicity assays were performed.

[7] = Cytotoxicity assay (XTT) in Vero cells; format: cell-based; conditions: African green monkey
Procedure: as §1

[8] = system: mouse bone marrow polychromatic erythrocytes; test: Micronucleus test in mouse bone marrow; format: in vivo; conditions: mice; 25 mg/Kg i.p.
Procedure: The ratio of polychromatic to normochromatic erythrocytes and the count of micronuclei were determined. This assay was conducted in compliance with the GLP principles.

SARS-COV-2 [9] = test: SARS-COV-2 viral RNA synthesis in Calu-3 cells (real time RT-PCR); format: cell-based; conditions: 1.0 μM
[10] = Calu-3, alone or in combination as labelled
[11] = Severe acute respiratory syndrome coronavirus 2, Calu-3, alone or in combination as labelled
[12] = Calu-3, single moment treatment
[13] = Severe acute respiratory syndrome coronavirus 2, Calu-3, 72 h, Calu-3 (MOI 0.5 72 h), daily treatment
[14] = Severe acute respiratory syndrome coronavirus 2, Calu-3, 72 h, Calu-3 (MOI 0.5 72 h), single moment treatment
[15] = Severe acute respiratory syndrome coronavirus 2, Calu-3, Table 6, Calu-3, daily treatment
[16] = Severe acute respiratory syndrome coronavirus 2, Calu-3, Table 6, Calu-3, single treatment
[17] = Table 6, Calu-3, daily treatment
[18] = Table 6, Calu-3, single treatment

## CCC(CC)COC(=O)[C@H](C)N[P@](=O)(OC[C@H]1O[C@@](C#N)(c2ccc3c(N)ncnn23)[C@H](O)[C@@H]1O)Oc1ccccc1 [Remdesivir, reference compound]
SARS-COV-2 [1]; [10]
  EC99 mean: 1.1 µM
SARS-COV-2 [1]; [11]
  EC50: 90 nM
  EC90: 400 nM
[2]
  CC50 at 3 days: 280000 nM
SARS-COV-2 [3]; Severe acute respiratory syndrome coronavirus 2, Vero (MOI 0.01 24 h), read-out: EC50
  EC50: 700 nM
SARS-COV-2 [3]; Vero, CC50/EC50
  SI: 757
SARS-COV-2 [4]; Huh-7, CC50/EC50
  SI: 46666
SARS-COV-2 [4]; Severe acute respiratory syndrome coronavirus 2, Huh-7 (MOI 0.1 48 h), read-out: EC50
  EC50: 6 nM
SARS-COV-2 [5]; [12]
  SI: 2300
SARS-COV-2 [5]; [13]
  EC50: 10 nM
  EC90: 200 nM
SARS-COV-2 [5]; [14]
  EC50: 150 nM
  EC90: 400 nM
SARS-COV-2 [5]; [15]
  EC50: 10 nM
  EC90: 200 nM
SARS-COV-2 [5]; [16]
  EC50: 150 nM
  EC90: 400 nM
SARS-COV-2 [5]; [17]
  SI: 3,3000
SARS-COV-2 [5]; [18]
  SI: 2.300
[6]; [17]
  CC50 at 3 days: 330000 nM
[6]; [18]
  CC50 at 3 days: 350000 nM
[7]
  CC50 at 3 days: 530000 nM

## CC(C)OC(=O)[C@H](C)N[P@](=O)(OC[C@H]1O[C@@H](n2ccc(=O)[nH]c2=O)[C@](C)(F)[C@@H]1O)Oc1ccccc1 [sofosbuvir]
SARS-COV-2 [1]
  effect of co-treatment with raltegravir or dolutegravir (iEXO) on inhibition of SARS-COV-2: enhanced efficiency

## O=P1(N(CCCl)CCCl)NCCCO1 (centres unmarked) [Cyclophosphamide, reference compound]
[8]
  MNPCE/4,000 PCE (Mean ± S.D.): 16.20 ± 6.03

## CC(C)OC(=O)[C@H](C)NP(=O)(OC[C@H]1O[C@@H](n2cnc3c(NCc4ccco4)ncnc32)[C@H](O)[C@@H]1O)Oc1ccccc1 (some centres unmarked) [MB-711, kinetin riboside monophosphoramidate]
SARS-COV-2 [1]
  effect of co-treatment with raltegravir or dolutegravir (iEXO) on inhibition of SARS-COV-2: synergistic
SARS-COV-2 [5]; Calu-3, daily treatment
  SI: 58000 µM
SARS-COV-2 [5]; [12]
  SI: 510
SARS-COV-2 [5]; [13]
  EC50: 10 nM
  EC90: 3800 nM
SARS-COV-2 [5]; [14]
  EC50: 1100 nM
  EC90: 9200 nM
SARS-COV-2 [5]; [15]
  EC50: 10 nM
  EC90: 3800 nM
SARS-COV-2 [5]; [16]
  EC50: 1100 nM
  EC90: 9200 nM
SARS-COV-2 [5]; [17]
  SI: 58,000
SARS-COV-2 [5]; [18]
  SI: 510
SARS-COV-2 [9]
  inhibition of SARS-COV-2 RNA synthesis: best profiles
[6]; Calu-3, daily treatment
  CC50 at 3 days: 580000 nM
[6]; [12]
  CC50 at 3 days: 562000 nM
[6]; [17]
  CC50 at 3 days: 580000 nM
[6]; [18]
  CC50 at 3 days: 562000 nM

## Cc1nnc(C(=O)NC(C)(C)c2nc(C(=O)NCc3ccc(F)cc3)c(O)c(=O)n2C)o1 [RTG, raltegravir]
SARS-COV-2 [1]; [11]
  EC50: 4800 nM
SARS-COV-2 [1]
  effect on SARS-COV-2 replication: marginal effects

## C[C@H](Cn1cnc2c(N)ncnc21)OCP(=O)(O)O [Tenofovir]
SARS-COV-2 [1]; [10]
  EC50: 4300 nM
SARS-COV-2 [1]
  effect of co-treatment with raltegravir or dolutegravir (iEXO) on inhibition of SARS-COV-2: enhanced efficiency

## COC(=O)N[C@H](C(=O)N1CCC[C@H]1c1nc(-c2ccc(-c3ccc(-c4c[nH]c([C@@H]5CCCN5C(=O)[C@@H](NC(=O)OC)C(C)C)n4)cc3)cc2)c[nH]1)C(C)C [Daclatasvir]
SARS-COV-2 [1]; [11]
  EC50: 700 nM
  EC90: 3800 nM

## C/C(=C\CNc1ncnc2[nH]cnc12)CO [MB-907, zeatin]
[2]
  CC50 at 3 days: 600000 nM
SARS-COV-2 [3]; Severe acute respiratory syndrome coronavirus 2, Vero, 24 h
  EC50: 6000 nM
SARS-COV-2 [4]; Severe acute respiratory syndrome coronavirus 2, Huh-7, 48 h
  EC50: 50 nM

## C[C@@H]1CCO[C@H]2Cn3cc(C(=O)NCc4ccc(F)cc4F)c(=O)c(O)c3C(=O)N12 [DTG, dolutegravir]
SARS-COV-2 [1]; [11]
  EC50: 5300 nM
SARS-COV-2 [1]
  effect on SARS-COV-2 replication: marginal effects
